In assay [1] the test system is neuron-glia mixed cultures from DRG. Nature of the assay: IL-1β release in SGC-neuron co-cultures from DRG (ELISA). Format: cell-based, mouse. Particulars: 100 nM, cells from WT mice, 1 μM paclitaxel 24 h. On the procedure:
SGC and neuron co-culture: DRG were collected from wild-type (WT) or knock-out (KO) mice (8 weeks male) and incubated in 1 mg/ml Collagenase/Dispase (Roche Diagnostics, Madison, WI, USA) at 37° C. for 60 min, with agitation at 100 revolutions per minute (RPM) and then followed by incubation in 0.05% trypsin/EDTA for 10 min. The digestion enzymes were prepared in Dulbecco's modified Eagle medium/F12 with GlutaMAX (ThermoFisher, Waltham, MA). After incubation of 0.1% trypsin inhibitor and centrifugation (300 G), the cell pellet was gently triturated in a neurobasal medium containing […]. Dissociated DRG cells were seeded on non-coated culture dishes for 4 hrs. SGC and neurons were included for co-culture by hand-shaking of the culture flasks gently for 5 to 10 min and then resuspended by replacing with a new neurobasal medium. The attached glial-like cells were cultured in the DMEM/F12 medium containing 10% fetal bovine serum and 1% streptomycin/penicillin to promote cell growth and inhibition of differentiation. After 2 to 6 days, the glial-like cells were differentiated by application of the serum-free neural basal medium. […]

The target in another assay is T1, hGPR37L1 (Homo sapiens, UniProt O60883).
T1 sequence (O60883 26-481): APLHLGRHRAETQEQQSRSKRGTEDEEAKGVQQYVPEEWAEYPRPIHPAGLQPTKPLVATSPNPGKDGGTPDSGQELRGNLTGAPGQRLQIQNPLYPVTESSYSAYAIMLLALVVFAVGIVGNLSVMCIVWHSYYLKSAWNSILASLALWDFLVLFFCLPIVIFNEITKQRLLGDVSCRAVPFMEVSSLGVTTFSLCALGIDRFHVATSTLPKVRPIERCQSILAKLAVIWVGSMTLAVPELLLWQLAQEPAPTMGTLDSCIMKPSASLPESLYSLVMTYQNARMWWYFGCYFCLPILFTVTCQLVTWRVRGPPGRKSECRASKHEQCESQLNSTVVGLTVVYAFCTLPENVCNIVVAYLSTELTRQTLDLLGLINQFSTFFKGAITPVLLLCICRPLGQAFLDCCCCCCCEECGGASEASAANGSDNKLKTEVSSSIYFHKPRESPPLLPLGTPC
Description: cAMP BRET assay in HEK293 cells co-transfected with GPR37L1 and cAMP BRET cDNAs. Type of assay: cell-based. To be noted: 10 nM. On the procedure:
cAMP BRET assay: To detect cAMP change after GPCR37L1 activation, we transfected a Nano-lantern cAMP plasmid (1 μg) and human GPR37L1-tango plasmid (1 μg) into HEK-293 cells. BRET activity was measured upon the addition of 100 μl/well for a final concentration of 10 μM Coelenterazine (Santa Cruz Biotechnology, Dallas, TX), 10 nM MaR1, DHA or vehicle, and 100 μM forskolin (Enzo Life Sciences (Farmingdale, NY), #BML-CN100). The luminescent activity was measured using an Infinite F200 Pro Illuminometer (Tecan Trading AG, Switzerland). The luminescent activity was normalized to basal signal levels.
Eight different concentrations of compounds ranging from 0.1 nM to 100 nM were tested.
Background: In BRET a luciferase serves as donor, and the signal depends on an acceptor being close.

Molecules are shown by their SMILES.

Take `CC/C=C\C/C=C\C[C@H](O)\C=C/C=C/C=C/[C@H](O)C/C=C\CCC(=O)O` [MaR1, Maresin 1]: the “effect on paclitaxel-induced IL-1β secretion” value in assay [1] is reported as “blocked”. For the same compound, the “inhibition of forskolin-induced cAMP production” value on hGPR37L1 was “significantly inhibited”.
